The test system of this assay is biofilms. As to the kind of experiment: pilot site cooling tower (building downtown Montreal) treated with biodispersant, DATS clogging monitor and direct microbiological measurements.

On to `COC(C)COC(C)CO` (stereo not drawn) [dipropylene glycol methyl ether], for which, for the setting “300 ppm in recirculating water, no bactericide”, the “dig out of deposits covering the inside walls of the tower” value was “allowed first the dig out of the deposits”. Further, the “DATS clogging monitor measurements” value (after few days of treatment) is “the measurements were stabilized”. Moreover, for the setting “without any bactericide injection”, the “direct measurements of the microbiological activity (bacterial population vs initial state)” value is on record as “downwards stabilization of the bacterial population”.

Values taken from US20060251692A1, “Use of glycol ethers as biodispersants in heating and cooling systems” (priority 2005, published 2006).
